Results from article PMC8808171, “Nonselective TRPC channel inhibition and suppression of aminoglycoside-induced premature termination codon readthrough by the small molecule AC1903” (The Journal of Biological Chemistry, 2022).
Entries after “also recorded” stand apart in the source; their conditions may differ.

How the values were obtained:
[1] = test system: A498 cells; test: Cell viability assay (WST-1), A498 cells, AC1903 alone; assay type: cell-based; conditions: 0.1–100 μM, 8 h
Procedure: Cell viability assays were carried out using WST-1 Cell Proliferation Reagent (Merck). A498 cells were plated onto clear 96-well plates at 4000 cells per well and left to adhere for 24 h. Media was then removed, and replaced with fresh media containing 100 nM EA, in presence of either DMSO or 0.1 to 100 μM AC1903. Control wells were treated with vehicle (DMSO) only. To exclude any potential cytotoxic effects of AC1903 itself, cells were incubated with 0.1 to 100 μM AC1903 in absence of EA. Cells were treated in triplicate. Cells were incubated with compounds for 8 h. After 8 h, treatment media was removed and media containing WST-1 reagent (10 μl reagent +100 μl media per well) was added to each well and incubated for 1.5 h at 37 °C. Blank wells contained media and WST-1 reagent (no cells). […] Absorbance was then read at 440 nm and 650 nm (reference wavelength). To analyze data, the value of the 650 nm was subtracted from that of the 440 nm reading. Values across triplicate wells were averaged, and the value from the blank wells subtracted to account for background absorbance. […]
Inhibition of G418-induced premature stop codon readthrough
A498 cytotoxicity . […] Cell viability was calculated as % of control, and the effect of AC1903 was compared to control (0 µM ) (scatter plots showing data from three independent experiments; bars represent mean ± SD; n = 3). […]

[2] = test system: TRPC3, TRPC4, TRPC5, TRPC6, TRPC4–C1, TRPC5–C1, endogenous TRPC1:C4 channels; test: Summary of TRPC channel inhibition by AC1903; assay type: cell-based; conditions: TRPC3, TRPC4, TRPC5, TRPC6, TRPC4–C1, TRPC5–C1, endogenous TRPC1:C4 in A498; read-out: IC50 values over multiple TRPC channels
Description: Nonsense mutations, which occur in ∼11% of patients with genetic disorders, introduce premature termination codons (PTCs) that lead to truncated proteins and promote nonsense-mediated mRNA decay. Aminoglycosides such as G418 permit PTC readthrough and so may be used to address this problem. However, their effects are variable between patients, making clinical use of aminoglycosides challenging. In this study, we tested whether TRPC nonselective cation channels contribute to the variable PTC readthrough effect of aminoglycosides by controlling their cellular uptake. […] In addition, our data strengthen the hypothesis that nonselective calcium channels are involved in aminoglycoside uptake.
[Ca^2+]i recordings were carried out using the ratiometric Ca^2+ dye Fura-2. 24 h prior to experiments, cells were plated either onto black, clear bottom poly-D-lysine-coated 96-well plates (HEK cells) or clear 96-well plates (A498 cells, CHO cells) at 50,000 cells per well (HEK cells) or 20,000 cells per well (A498 cells, CHO cells). For tetracycline-inducible HEK T-REx cells, protein expression was induced with tetracycline (TRPC channels: 1 μg ml^−1; hPiezo1: 100 ng ml^−1) at this point. […]

[3] = test system: standard kinase panel; parameters: method as in PMID 29217578; conditions: cited from earlier work

- IC50 [2]: 1.8 to 18 µM
Compound: c1ccc(Cn2c(NCc3ccco3)nc3ccccc32)cc1 [AC1903]
- effect on viability of A498 cells [1]: not toxic; also recorded: did not affect viability
- off-target effects in a standard kinase panel [3]: no off-target effects were found
